Assay results as given in patent publication US6835536B2, “Antimicrobial cationic peptides and formulations thereof” (Micrologix Biotech Inc., priority 2001, dated 2004).

Legend:
Assay in all cases: Agarose dilution MIC assay
Assay type in all cases: cell-based
[1] = test system: S. mitis; conditions: S. mitis strain SMT014
Text: (§1) The agarose dilution assay measures antimicrobial activity of peptides and peptide analogues. The activity is expressed as the minimum inhibitory concentration (MIC) in μg/ml of the peptide.
(§2) In order to mimic in vivo conditions, calcium and magnesium supplemented Mueller Hinton broth is used in combination with a low EEO agarose as the bacterial growth medium. Agarose, rather than agar, is used as the charged groups in agar prevent peptide diffusion through the medium. The medium is autoclaved, then cooled to 50-55° C. in a water bath before aseptic addition of a peptide solution. The same volume of different concentrations of peptide solution is added to the cooled, molten agarose that is then poured into a petri plate to a depth of 3-4 mm and allowed to solidify.
(§3) The bacterial inoculum is adjusted to a 0.5 McFarland turbidity standard (PML Microbiological) and then diluted 1:10 before application on to the agarose plate. The final inoculum applied to the agarose is approximately 10^4 CFU in a 5-8 mm diameter spot. The agarose plates are incubated at 35-37° C. for 16 to 20 hours.

[2] = test system: E. coli; conditions: E. coli strain ECO005
Text: as §1, §2, §3

[3] = test system: C. neoformans; conditions: C. neoformans strain CNE001
Text: as §1, §2, §3

[4] = test system: S. marcescens; conditions: S. marcescens strain SMS003
Text: as §1, §2, §3

[5] = test system: K. pneumoniae; conditions: K. pnenmoniae strain KPN001
Text: as §1, §2, §3

[6] = test system: A. calcoaceticus; conditions: A. calcoaceticus strain ACA002
Text: as §1, §2, §3

[7] = test system: E. faecalis; conditions: E. faecalis strain EFS001
Text: as §1, §2, §3

[8] = test system: S. maltophilia; conditions: S. maltophilia strain SMA002
Text: as §1, §2, §3

[9] = test system: E. cloacae; conditions: E. cloacae strain ECL007
Text: as §1, §2, §3

[10] = test system: C. albicans; conditions: C. albicans strain CAL002; agarose dilution
Text: as §1, §2, §3

[11] = test system: S. aureus; conditions: S. aureus strain SAU014; agarose dilution
Text: as §1, §2, §3

[12] = test system: C. jeikeium; conditions: C. jeikeium strain CJK005
Text: as §1, §2, §3

[13] = test system: P. aeruginosa; conditions: P. aeruginosa strain PAE004; agarose dilution
Text: as §1, §2, §3

[14] = test system: S. epidermidis; conditions: S. epidermidis strain SEP010; agarose dilution
Text: as §1, §2, §3

[15] = test system: S. pneumoniae; conditions: S. pneumoniae strain SPN002
Text: as §1, §2, §3

[16] = test system: S. pyogenes; conditions: S. pyogenes strain SPY001
Text: as §1, §2, §3

Row | Substance | Minimum Inhibitory Concentration [1] [µg/mL] | Minimum Inhibitory Concentration [2] [µg/mL] | Minimum Inhibitory Concentration [3] [µg/mL] | Minimum Inhibitory Concentration [4] [µg/mL] | Minimum Inhibitory Concentration [5] [µg/mL] | Minimum Inhibitory Concentration [6] [µg/mL] | Minimum Inhibitory Concentration [7] [µg/mL] | Minimum Inhibitory Concentration [8] [µg/mL] | Minimum Inhibitory Concentration [9] [µg/mL] | Minimum Inhibitory Concentration [10] [µg/mL] | Minimum Inhibitory Concentration [11] [µg/mL] | Minimum Inhibitory Concentration [12] [µg/mL] | Minimum Inhibitory Concentration [13] [µg/mL] | Minimum Inhibitory Concentration [14] [µg/mL] | Minimum Inhibitory Concentration [15] [µg/mL] | Minimum Inhibitory Concentration [16] [µg/mL]
1 | R L W W V V W W R R [Peptide 11F56CN] | 1 | 2 | 8 | >128 | 2 | 1 | 2 | 2 | 32 | 16 | 1 | 0.5 | 32 | 1 | 2 | 1
2 | i L K K W P W W P W R R k [Peptide 11E3CN] | 2 | 8 | 4 | >128 | 32 | 4 | 64 | 64 | >128 | 32 | 8 | 0.5 | 64 | 4 | 4 | 1
3 | r L W V W W V W R R [Peptide 11F67CN] | 1 | 2 | 8 | >128 | 2 | 2 | 4 | 2 | 32 | 32 | 2 | 0.5 | 16 | 1 | 2 | 1
